The values that follow come from patent publication US20250352553A1, “TREATMENT OF HOSPITAL-ACQUIRED BACTERIAL PNEUMONIA AND VENTILATOR-ASSOCIATED BACTERIAL PNEUMONIA CAUSED BY SUSCEPTIBLE ISOLATES OF ACINETOBACTER BAUMANNII-CALCOACETICUS COMPLEX” (Entasis Therapeutics, Inc., priority 2024, published 2025).

Series [1] has as its system Acinetobacter baumannii-calcoaceticus complex. In kind it is in vivo, human. To be noted: Part A, CRABC m-MITT Population. Here is the method:
The Phase 3 trial employed a non-inferiority design, as discussed and agreed with the FDA DAI. A Test of Cure (TOC) visit was completed 7±2 days after the last dose, and survival was assessed at Day 28.
Patients were treated with either XACDURO® (1 g sulbactam and 1 g durlobactam, or renally adjusted dose) intravenously over 3 hours every 6 hours (n=91) or colistin 2.5 mg/kg (or renally adjusted dose) intravenously over 30 minutes every 12 hours after an initial loading dose of colistin 2.5 to 5 mg/kg (n=86). Both treatment arms also received 1 g imipenem/1 g cilastatin (or renally adjusted dose) intravenously every 6 hours as background therapy for potential HABP/VABP pathogens other than Acinetobacter baumannii-calcoaceticus complex. Patients received up to 14 days of therapy.
Part A was a randomized, assessor-blinded, comparative portion of the Phase 3 trial. Patients were randomized (1:1) to 1.0 g sulbactam/1.0 g durlobactam or 2.5 mg/kg colistin. All patients in both treatment groups received 1.0 g imipenem/1.0 g cilastatin as background therapy to treat non-ABC co-infecting pathogens.
Randomization was stratified by infection type (HABP/VABP/ventilated pneumonia [VP] vs bacteremia), severity of illness, and geography.
Eligible patients were ≥18 years of age with a diagnosis of a serious infection caused by ABC as either a single pathogen or member of a polymicrobial infection confirmed by culture.
Non-inferiority was concluded if the upper limit of the 2-sided 95% CI was <20%.
Secondary efficacy endpoints for Parts A and B included: 28-day all-cause mortality in the m-MITT and ITT Populations, 14-day all-cause mortality in the CRABC m-MITT and m-MITT Populations, Clinical cure at TOC, End of Treatment (EOT), and Late Follow-Up (LFU) in the CRABC m-MITT Population, and Microbiological favorable assessment at TOC, EOT, and LFU in the CRABC m-MITT Population.

The conditions of series [2]: in vivo.
Protocol: The modified RIFLE criteria includes: Risk (R): increased creatinine level 1.5× or glomerular filtration rate (GFR) decreased >25%, • Injury (I): increased creatinine level 2× or GFR decreased >50%, Failure (F): increased creatinine level 3×, GFR decreased >75%, or creatinine level ≥4 mg/dL, Loss (L): persistent acute renal failure or complete loss of function for >4 weeks, and End-Stage Kidney Disease (ESKD; E): ESKD for >3 months.
The test system of series [3] is Acinetobacter baumannii-calcoaceticus complex. The following applies: colistin-based therapy, cited from earlier work.

For colistin, the 28-day all-cause mortality in series [1] is given as 32.3%. Further, the “clinical cure rate at TOC” value in series [1] (Test of Cure visit) is reported as 40.3%. In series [1] (eradication and presumed eradication), the “microbiological favorable assessment at TOC” value was 41.9%. In addition, the “incidence of nephrotoxicity (modified RIFLE criteria)” value in series [2] came out at 37.6%. Moreover, in series [3] (literature review, DerSimonian and Laird, 95% CI 32%, 47%), the “mortality rate, random effects analysis” value is on record as 40%. Further, the “mortality rate, fixed effects analysis” value in series [3] (literature review, 95% CI 35%, 45%) is listed as 40%. Besides, the “mortality rate, random effects meta-analysis updated with 4 additional studies” value in series [3] (95% CI 36%, 47%) was 41%.
